# Laboratory results taken from article PMC11309765, “Mechanism of the blood-brain barrier modulation by cadherin peptides” (Exploration of drug science, 2024).
# Entries after “also recorded” stand apart in the source; their conditions may differ. Bridges are numbered along the chain shown (N, C = ends).
# B1: ADTC9 (peptide)
# peptide: Ac-CDTPPYC-NH2
# modifications: disulfide 1-7
# SMILES: CC(=O)N[C@H]1CSSC[C@@H](C(N)=O)NC(=O)[C@H](Cc2ccc(O)cc2)NC(=O)[C@@H]2CCCN2C(=O)[C@@H]2CCCN2C(=O)[C@H]([C@@H](C)O)NC(=O)[C@H](CC(=O)O)NC1=O
# notes: Cyclo(1,7)Ac-CDTPPYC-NH2; derivative of ADTC5 with Val6 replaced by Tyr6; source: synthetic peptide (Fmoc solid-phase synthesis, HPLC purified, cyclized by air oxidation)
# B2: Ala-Asp-Thr Cyclic 5 (ADTC5) (peptide)
# peptide: Ac-CDTPPVC-NH2
# modifications: disulfide 1-7
# SMILES: CC(=O)N[C@H]1CSSC[C@@H](C(N)=O)NC(=O)[C@H](C(C)C)NC(=O)[C@@H]2CCCN2C(=O)[C@@H]2CCCN2C(=O)[C@H]([C@@H](C)O)NC(=O)[C@H](CC(=O)O)NC1=O
# notes: Cyclo(1,7)Ac-CDTPPVC-NH2; ADT peptide designed from the bulge region of the cadherin EC1 domain; also called ADT cyclic 5; source: synthetic peptide (Fmoc solid-phase synthesis, HPLC purified, cyclized by air oxidation)
# B3: ADTC7 (peptide)
# peptide: Ac-CDTPPEC-NH2
# modifications: disulfide 1-7
# SMILES: CC(=O)N[C@H]1CSSC[C@@H](C(N)=O)NC(=O)[C@H](CCC(=O)O)NC(=O)[C@@H]2CCCN2C(=O)[C@@H]2CCCN2C(=O)[C@H]([C@@H](C)O)NC(=O)[C@H](CC(=O)O)NC1=O
# notes: Cyclo(1,7)Ac-CDTPPEC-NH2; derivative of ADTC5 with Val6 replaced by Glu6; source: synthetic peptide (Fmoc solid-phase synthesis, HPLC purified, cyclized by air oxidation)
# Columns and labels:
# [1] = tested on: blood-brain barrier (BBB); details: cited from earlier work
# Excerpt: In addition, Gd-DTPA delivery to the brain was enhanced when co-administered with ADTC5 in living mice upon detection with magnetic resonance imaging (MRI). […] Different cadherin peptides produced different durations of the BBB opening for different sizes of del ...
# [2] = tested on: BBB; details: in vivo; cited from earlier work
# Excerpt: As BBBMs, the in vivo activities of ADT and HAV peptides to modulate the BBB were transient and reversible. […] Different cadherin peptides produced different durations of the BBB opening for different sizes of del ...
# [3] = tested on: EC1 domain of E-cadherin; details: cited from earlier work
# Excerpt: The BBB paracellular porosity can be magnified by Ala-Asp-Thr (ADT) and His-Ala-Val (HAV) peptides that were derived from cadherin sequences to inhibit cadherin-cadherin interactions. The ADT and HAV peptides were designed from the amino acid sequences of the bulge and grove regions in the cadherin EC1 domain, respectively. As BBB modulators (BBBMs), both ADT and/or HAV peptides enhanced brain depositions of various sizes of molecules to the brain parenchyma such as IRdye 800CW, ^3H-daunomycin, adenanthin, or gadolinium-diethylenetriaminepentacetate (Gd-DTPA or gadopent ... || Figure 6. The proposed mechanisms of binding for Ala-Asp-Thr (ADT) and His-Ala-Val (HAV) peptides to extracellular-1 (EC1) domain of cadherin to inhibit cadherin-cadherin interactions. (A) A model to represent cadherin-to-cadherin interactions in the paracellular pathway at the adherens junction. First is the cis-interaction of EC1 and EC2 on two cadherin proteins that are protruding from one side of cell membranes. Second is the trans-interaction of EC1-EC1 from two cadherins that reside in two opposite membranes; (B) the EC1-EC1 interaction with domain swapping between the N-terminal Trp2 an ... || We hypothesized that HAV and ADT peptides prevent cadherin-cadherin interactions by binding to EC1 in the BBB adherens junctions (Figure 6C and D). Cadherin peptides disrupt the integrity of cell-cell adhesion in dynamics and reversible fashion in paracellular pathways of the BBB. Thus, the NMR and molecular docking experiments were carried out to determine the EC1 binding properties of ADT peptides.
# [4] = tested on: BBB; design: method as in 3 sources, ref 49 = [49]; PMID 12754091; doi:10.1016/s0361-9230(03)00043-1; 49. Borlongan CV , Emerich DF . Facilitation of drug entry into the CNS via transient permeation of blood brain barrier: laboratory and preliminary clinical evidence from bradykinin receptor agonist, ||| ref 50 = [50]; PMID 22524793; doi:10.1021/mp3000937; 50. Zwanziger D , Hackel D , Staat C , Böcker A , Brack A , Beyermann M , A peptidomimetic tight junction modulator to improve regional analgesia . Mol Pharm . 2012; 9 : 1785 – 94 . 22524793 10.1021/ ||| ref 43-45 = [43]; PMID 25307218; doi:10.1016/bs.apha.2014.06.002; 43. Doolittle ND , Muldoon LL , Culp AY , Neuwelt EA . Delivery of chemotherapeutics across the blood-brain barrier: challenges and advances . Adv Pharmacol . 2014; 71 : 203 – 43 . 25307218 10.1016/b || [44]; 44. Smith QR . Quantitation of Blood-Brain Barrier Permeability . In: Neuwelt EA , editor. Implications of the Blood-Brain Barrier and Its Manipulation: Volume 1 Basic Science Aspects . Boston, MA : S || [45]; PMID 3930991; doi:10.1227/00006123-198509000-00004; 45. Neuwelt EA , Barnett PA , McCormick CI , Frenkel EP , Minna JD . Osmotic blood-brain barrier modification: monoclonal antibody, albumin, and methotrexate delivery to cerebrospinal fluid and brain; details: hypertonic mannitol solution; cited from earlier work
# [5] = target: 15N-labeled extracellular-1 (EC1) domain of human E-cadherin (human, UniProt P12830 155-367, 15N-labeled); assay: NMR titration; 1H-15N HSQC (600 MHz) of 15N-labeled EC1 titrated with peptide; 20.0 mM potassium phosphate, 5.0 mM DTT, pH 6.0, 6% D2O; chemical shift perturbation; Kd from the titration curve of a single residue (Ile53 or Leu21); details: both partners purified
# Sequence of 15N-labeled extracellular-1 (EC1) domain of human E-cadherin (P12830 155-367): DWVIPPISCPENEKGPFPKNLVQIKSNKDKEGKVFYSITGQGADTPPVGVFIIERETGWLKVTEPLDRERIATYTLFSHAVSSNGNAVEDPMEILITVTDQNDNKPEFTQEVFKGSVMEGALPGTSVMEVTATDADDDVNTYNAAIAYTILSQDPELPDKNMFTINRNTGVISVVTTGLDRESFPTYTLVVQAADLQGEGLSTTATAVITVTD
molecule,measurement,setting,value
"Ac-SHAVSS-NH2 [HAV6, reference compound]",delivery of mAb to brain,[1]; 150 kDa mAb,could not deliver mAb when administered together
same,duration of BBB opening for transport of Gd-DTPA,[1]; Gd-DTPA,less than 45 min
same,delivery of Galbumin to brain,[1]; delay in the administration of HAV6 and Galbumin,could not deliver Galbumin when there was a delay in the administration of HAV6 and Galbumin
same,inflammation and astrogliosis,[2],did not induce inflammation and astrogliosis
same,EC1 binding site location,[3],dock on the surface of EC1 that interacts with the EC2 surface from a neighboring cadherin protein
"Cyclo(1,6)Ac-CSHAVC-NH2 (disulfide) [cHAVc3]",EC1 binding and effect on cis-cadherin interactions,[3],increased the porosity of the paracellular route through binding to the EC1 domain followed by disruption of the cis-cadherin interactions
same,EC1 binding site location,[3],found at the opposite side of ADT cyclic 5 (ADTC5) binding site; also recorded: dock on the surface of EC1 that interacts with the EC2 surface from a neighboring cadherin protein; also recorded: binds to the opposite side of ADTC5-binding site
OC[C@@H](O)[C@@H](O)[C@H](O)[C@H](O)CO [mannitol],BBB paracellular porosity by osmotic disruption,[4],increase paracellular porosity of the intercellular junctions
B1,Kd,[5],181 µM
B2,Kd,[5],35 µM
B3,Kd,[5],64 µM
